Each compound was assayed against T1, human FSH receptor (Homo sapiens, UniProt P23945) (assay: CHO-FSH in vitro bio activity (CRE-luciferase reporter)). Conditions: CHO cells stably transfected with human FSH receptor and CRE/luciferase reporter; half-maximal (50%) stimulation.
T1 construct: expressed in transfected cells; host or cells: Chinese Hamster Ovary (CHO) cells
T1 sequence (P23945 18-695): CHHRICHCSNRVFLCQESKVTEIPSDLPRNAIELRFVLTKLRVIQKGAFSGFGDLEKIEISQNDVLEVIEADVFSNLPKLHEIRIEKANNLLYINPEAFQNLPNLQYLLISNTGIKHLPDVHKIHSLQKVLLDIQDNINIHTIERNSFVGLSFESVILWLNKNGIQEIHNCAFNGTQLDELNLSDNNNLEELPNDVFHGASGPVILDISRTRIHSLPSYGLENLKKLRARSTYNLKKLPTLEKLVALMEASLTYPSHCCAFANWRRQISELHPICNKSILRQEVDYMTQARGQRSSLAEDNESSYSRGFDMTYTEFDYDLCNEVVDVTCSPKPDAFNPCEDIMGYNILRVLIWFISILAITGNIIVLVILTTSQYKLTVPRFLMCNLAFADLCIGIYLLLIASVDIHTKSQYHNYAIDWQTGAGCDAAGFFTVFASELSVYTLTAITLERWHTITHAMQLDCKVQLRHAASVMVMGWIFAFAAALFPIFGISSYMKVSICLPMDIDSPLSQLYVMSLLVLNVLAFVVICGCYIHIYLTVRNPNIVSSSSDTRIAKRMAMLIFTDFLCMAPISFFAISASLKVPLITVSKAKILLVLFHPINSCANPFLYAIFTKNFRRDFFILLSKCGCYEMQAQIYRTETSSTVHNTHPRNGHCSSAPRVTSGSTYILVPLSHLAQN
Format: cell-based
Method: FSH activity of compounds were tested in Chinese Hamster Ovary (CHO) cells stably transfected with the human FSH receptor and cotransfected with a cAMP responsive element (CRE)/promotor directing the expression of a firefly luciferase reporter gene. Binding of ligand to the Gs-coupled FSH receptor will result in an increase of cAMP, which in turn will induce an increased transactivation of the luciferase reporter construct. The luciferase signal was quantified using a luminescence counter. For test compounds, EC50 values (concentration of test compound causing half-maximal (50%) stimulation) were calculated. For that purpose the software program GraphPad PRISM, version 3.0 (GraphPad software Inc., San Diego) was used.

EC50 [nM]	SMILES
< 100	CC(=O)N1c2ccc(NC(=O)c3ccc(Cl)cc3)cc2C(C)(c2ccccc2)CC1(C)C (stereo not shown) [Example 6, 1-Acetyl-6-(4-chlorobenzoyl)amino-4-phenyl-1,2,3,4-tetrahydro-2,2,4-trimethylquinoline]
< 100	CC(=O)N1c2ccc(NC(=O)c3ccccc3)cc2C(C)(c2ccccc2)CC1(C)C (stereo not shown) [Example 7, 1-Acetyl-6-benzoylamino-4-phenyl-1,2,3,4-tetrahydro-2,2,4-trimethylquinoline]
< 100	CC(=O)N1c2ccc(NC(=O)c3ccc(C(F)(F)F)cc3)cc2C(C)(c2ccccc2)CC1(C)C (stereo not shown) [Example 8, 1-Acetyl-4-phenyl-1,2,3,4-tetrahydro-6-(4-[trifluoromethyl]benzoyl)amino-2,2,4-trimethylquinoline]
< 100	CC(=O)N1c2ccc(NC(=O)c3ccc([N+](=O)[O-])cc3)cc2C(C)(c2ccccc2)CC1(C)C (stereo not shown) [Example 9, 1-Acetyl-6-(4-nitrobenzoyl)amino-4-phenyl-1,2,3,4-tetrahydro-2,2,4-trimethylquinoline]
< 100	CCCc1ccc(C(=O)Nc2ccc3c(c2)C(C)(c2ccccc2)CC(C)(C)N3C(C)=O)cc1 (stereo not shown) [Example 10, 1-Acetyl-4-phenyl-6-(4-n-propylbenzoyl)amino-1,2,3,4-tetrahydro-2,2,4-trimethylquinoline]
< 100	COc1ccc(Br)c(OC)c1C(=O)Nc1ccc2c(c1)C(C)(c1ccccc1)CC(C)(C)N2C(C)=O (stereo not shown) [Example 11, 1-Acetyl-6-(3-bromo-2,6-dimethoxybenzoyl)amino-4-phenyl-1,2,3,4-tetrahydro-2,2,4-trimethylquinoline]
< 100	CC(=O)N1c2ccc(NC(=O)c3ccc(-c4ccccc4)cc3)cc2C(C)(c2ccccc2)CC1(C)C (stereo not shown) [Example 12, 1-Acetyl-4-phenyl-6-(4-phenylbenzoyl)amino-1,2,3,4-tetrahydro-2,2,4-trimethylquinoline]
< 100	CC(=O)N1c2ccc(NC(=O)c3ccc(-c4ccc(Cl)cc4)cc3)cc2C(C)(c2ccccc2)CC1(C)C (stereo not shown) [Example 13, 1-Acetyl-6-(4-[4-chlorophenyl]benzoyl)amino-4-phenyl-1,2,3,4-tetrahydro-2,2,4-trimethylquinoline]
< 100	COc1ccc(-c2ccccc2)c(C(=O)Nc2ccc3c(c2)C(C)(c2ccccc2)CC(C)(C)N3C(C)=O)c1 (stereo not shown) [Example 15, 1-Acetyl-4-phenyl-6-(2-phenyl-5-methoxybenzoyl)amino-1,2,3,4-tetrahydro-2,2,4-trimethylquinoline]
< 100	CC(=O)N1c2ccc(NC(=O)c3cccc(C)c3-c3ccccc3)cc2C(C)(c2ccccc2)CC1(C)C (stereo not shown) [Example 16, 1-Acetyl-4-phenyl-6-(2-phenyl-3-methylbenzoyl)amino-1,2,3,4-tetrahydro-2,2,4-trimethylquinoline]
< 100	CC(=O)N1c2ccc(NC(=O)CCc3ccccc3)cc2C(C)(c2ccccc2)CC1(C)C (stereo not shown) [Example 21, 1-Acetyl-4-phenyl-6-(3-phenylpropionyl)amino-1,2,3,4-tetrahydro-2,2,4-trimethylquinoline]
< 100	CC(=O)N1c2ccc(NC(=O)c3ccco3)cc2C(C)(c2ccccc2)CC1(C)C (stereo not shown) [Example 22, 1-Acetyl-6-(2-furoyl)amino-4-phenyl-1,2,3,4-tetrahydro-2,2,4-trimethylquinoline]
< 100	CC(=O)N1c2ccc(NC(=O)CC(C)C)cc2C(C)(c2ccccc2)CC1(C)C (stereo not shown) [Example 23, 1-Acetyl-6-(isovaleryl)amino-4-phenyl-1,2,3,4-tetrahydro-2,2,4-trimethylquinoline]
< 100	CC(=O)N1c2ccc(NC(=O)CCC34CC5CC(CC(C5)C3)C4)cc2C(C)(c2ccccc2)CC1(C)C (stereo not shown) [Example 24, 1-Acetyl-6-(3-[adamantan-1-yl]propionyl)amino-4-phenyl-1,2,3,4-tetrahydro-2,2,4-trimethylquinoline]
< 100	CC(=O)N1c2ccc(NC(=O)CN3CCN(c4ccccc4)CC3)cc2C(C)(c2ccccc2)CC1(C)C (stereo not shown) [Example 30, 1-Acetyl-6-([4-{1-phenyl}-piperazinyl]methylcarbonyl)amino-4-phenyl-1,2,3,4-tetrahydro-2,2,4-trimethylquinoline]
< 100	COc1ccc(COC(=O)c2ccc3c(c2)C(C)(c2ccccc2)CC(C)(C)N3C(C)=O)cc1 (stereo not shown) [Example 36, 1-Acetyl-6-(4-methoxybenzyloxy)carbonyl-4-phenyl-1,2,3,4-tetrahydro-2,2,4-trimethylquinoline]
< 100	CC(=O)N1c2ccc(OC(=O)c3ccc(-c4ccccc4)cc3)cc2C(C)(c2ccccc2)CC1(C)C (stereo not shown) [Example 37, 1-Acetyl-6-(4-phenylbenzoyl)oxy-4-phenyl-1,2,3,4-tetrahydro-2,2,4-trimethylquinoline]
< 100	CC(=O)N1c2cc(C)c(NC(=O)c3ccc(-c4ccccc4)cc3)cc2C(C)(c2ccccc2)CC1(C)C (stereo not shown) [Example 45, 1-Acetyl-6-(4-phenylbenzoyl)amino-4-phenyl-1,2,3,4-tetrahydro-2,2,4,7-tetramethylquinoline]
< 100	COc1cc(NC(=O)c2ccc(-c3ccccc3)cc2)cc2c1N(C(C)=O)C(C)(C)CC2(C)c1ccccc1 (stereo not shown) [Example 46, 1-Acetyl-6-(4-phenylbenzoyl)amino-8-methoxy-4-phenyl-1,2,3,4-tetrahydro-2,2,4-trimethylquinoline]
< 100	CC(=O)N1c2ccc(NC(=O)c3cc(Br)cc(Br)c3)cc2C(C)(c2ccccc2)CC1(C)C (stereo not shown) [Example 50, 1-Acetyl-6-(3,5-dibromobenzoyl)amino-4-phenyl-1,2,3,4-tetrahydro-2,2,4-trimethylquinoline]
< 100	CNc1ccc(Br)cc1C(=O)Nc1ccc2c(c1)C(C)(c1ccccc1)CC(C)(C)N2C(C)=O (stereo not shown) [Example 51, 1-Acetyl-6-(5-bromo-2-methylaminobenzoyl)amino-4-phenyl-1,2,3,4-tetrahydro-2,2,4-trimethylquinoline]
< 100	COc1cc(C(=O)Nc2ccc3c(c2)C(C)(c2ccccc2)CC(C)(C)N3C(C)=O)cc(OC)c1OC (stereo not shown) [Example 52, 1-Acetyl-6-(3,4,5-trimethoxybenzoyl)amino-4-phenyl-1,2,3,4-tetrahydro-2,2,4-trimethylquinoline]
< 100	COc1c(Cl)cc(Cl)c(OC)c1C(=O)Nc1ccc2c(c1)C(C)(c1ccccc1)CC(C)(C)N2C(C)=O (stereo not shown) [Example 53, 1-Acetyl-6-(3,5-dichloro-2,6-dimethoxybenzoyl)amino-4-phenyl-1,2,3,4-tetrahydro-2,2,4-trimethylquinoline]
< 100	CC(=O)N1c2ccc(NC(=O)c3ccccc3OS(C)(=O)=O)cc2C(C)(c2ccccc2)CC1(C)C (stereo not shown) [Example 58, 1-Acetyl-6-(2-methylsulfonyloxybenzoyl)amino-4-phenyl-1,2,3,4-tetrahydro-2,2,4-trimethylquinoline]
< 100	CC(=O)N1c2ccc(NC(=O)c3ccccc3OC(=O)c3cc(C)on3)cc2C(C)(c2ccccc2)CC1(C)C (stereo not shown) [Example 61, 1-Acetyl-6-(2-[5-methylisoxazole-3-carbonyl]oxybenzoyl)amino-4-phenyl-1,2,3,4-tetrahydro-2,2,4-trimethylquinoline]
< 100	CC(=O)N1c2ccc(NC(=O)c3ccccc3OC(=O)N3CCOCC3)cc2C(C)(c2ccccc2)CC1(C)C (stereo not shown) [Example 63, 1-Acetyl-6-(2-[morpholino-4-carbonyl]oxybenzoyl)amino-4-phenyl-1,2,3,4-tetrahydro-2,2,4-trimethylquinoline]
< 100	CC(=O)N1c2ccc(NC(=O)c3ccccc3Nc3ccccc3)cc2C(C)(c2ccccc2)CC1(C)C (stereo not shown) [Example 64, 1-Acetyl-6-(2-phenylaminobenzoyl)amino-4-phenyl-1,2,3,4-tetrahydro-2,2,4-trimethylquinoline]

SMILES	EC50 [nM]
CC(=O)N1c2ccc(NC(=O)OC(C)(C)C)cc2C(C)(c2ccccc2)CC1(C)C (stereo not shown) [Example 1, 1-Acetyl-6-(tert-butoxycarbonyl)amino-4-phenyl-1,2,3,4-tetrahydro-2,2,4-trimethylquinoline]	< 100
